Reference: paper PMC4658428 (Frontiers in Microbiology, 2015)

Legend:
[1] = test system: LdtR; conditions: cited from earlier work
[2] = test system: WT LdtR; type: binding, Liberibacter asiaticus
[3] = test system: WT LdtR; type: biochemical, Liberibacter asiaticus
[4] = test system: S. meliloti strain SMP2A (ΔldtRSMc-pBBR1MCS-5); type: cell-based
[5] = test system: WT LdtR, lacZ reporter in B. subtilis strain BS6; type: cell-based, Bacillus subtilis
[6] = test system: S. meliloti strain SMP5 (1021-pBBR1MCS-5); type: cell-based, Sinorhizobium meliloti
[7] = test system: S. meliloti strain SMP2B (ΔldtRSMc-pBBR1MCS-5::LdtR); type: cell-based
[8] = test system: B. subtilis cells; type: cell-based, Bacillus subtilis
[9] = target: LdtR Wild type (Candidatus Liberibacter asiaticus, UniProt A0ABN4AZS1)
[10] = target: ST1710; conditions: read-out: affinity value; cited from earlier work
[11] = test system: LdtR WT (Liberibacter asiaticus); assay: EMSA
[12] = target: LdtR wild type (Liberibacter asiaticus); assay: SEC

CC[C@H](c1ccc(O)cc1)[C@@H](CC)c1ccc(O)cc1 [hexestrol]
effect on LdtR binding to DNA [1]: inhibitors of LdtR binding to DNA

CCc1oc2ccccc2c1C(=O)c1cc(Br)c(O)c(Br)c1 [benzbromarone]
change in melting temperature (ΔTm) [2]: -1.8 ± 0.2 °C
decrease of melting temperature [2]: 3.6 ± 0.2 °C
excess of benzbromarone at which the LdtR:DNA complex is disrupted [3]: 10 fold excess
Growth rate constant, k [4]: 0.042 ± 0.002 generations/h
Mean generation time [4]: 23.8 h
reduction of β-galactosidase activity [5]: 40%
Growth rate constant, k [6]: 0.044 ± 0.003 generations/h
Mean generation time [6]: 22.7 h
increase of the duplication time on addition of benzbromarone [6]: 39%
Growth rate constant, k [7]: 0.045 ± 0.002 generations/h
Mean generation time [7]: 22.2 h
increase of the duplication time on addition of benzbromarone [7]: 25%
concentrations found to be toxic to the cells [8]: higher than 5 μM
effect on LdtR binding to DNA [1]: inhibitors of LdtR binding to DNA
N [9]: 0.34 ± 0.08
ΔG [9]: -7.5 kcal/mol
ΔH [9]: -3.0 ± 1.0 kcal/mol
ΔS [9]: 14.9 cal/mol/deg

O=C(CCc1ccc(O)cc1)c1c(O)cc(O)cc1O [phloretin]
effect on LdtR binding to DNA [1]: inhibitors of LdtR binding to DNA

CC[n+]1c(-c2ccccc2)c2cc(N)ccc2c2ccc(N)cc21 [ethidium]
Kd [10]: 13.7 µM

PldtP
K half [11]: 200 nM

LdtR wild type (natural protein)
stoichiometry N [12]: 2
